In patent publication US9365522B2, “Pyrazole amide derivative” (AMGEN INC., priority 2015, dated 2016):
Where two headings read alike, the source gives them in different places.

Target: T1, ligand binding domain of human ROR gamma (Homo sapiens, UniProt P51449)
T1 construct: NM_001001523; expressed in transfected cells; host or cells: HEK293T
T1 sequence (P51449 247-497 isoform P51449-2): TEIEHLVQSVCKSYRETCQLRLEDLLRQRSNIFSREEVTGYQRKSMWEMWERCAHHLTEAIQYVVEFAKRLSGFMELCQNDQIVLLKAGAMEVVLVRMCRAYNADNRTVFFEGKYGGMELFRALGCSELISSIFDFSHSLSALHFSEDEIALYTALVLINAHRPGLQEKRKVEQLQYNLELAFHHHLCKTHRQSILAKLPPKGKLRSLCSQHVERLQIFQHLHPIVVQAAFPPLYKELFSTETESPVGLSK
Assay: ROR gamma reporter gene assay (GAL4-RORγ LBD luciferase, Dual-Glo)
Assay type: cell-based
Conditions: HEK293T cells transfected with pM-ROR gamma, 8 concentrations 3.5 nM to 10.5 μM, 24 h incubation
Procedure: Luciferase reporter gene assay was used to assess inhibition of RORγ transcriptional activity.
ROR gamma expression vector was prepared by inserting the ligand binding domain of human ROR gamma (amino acid 247-497 of Genbank Accession NO. NM_001001523) adjacent to the yeast GAL4 transcription factor DNA binding domain in the expression vector pM (Clontech). The resulting expression vector pM-ROR gamma was used in transfection experiments together with the pGL4 luciferase reporter plasmid (Promega) containing five copies of the UAS GAL4 recognition site and pRL-CMV plasmids (Promega) containing the constitutive CMV promoter and the renilla luciferase.
For preparing transfection reagent/DNA mixture, 1 μg pM-ROR gamma, 1 μg pGL4 5×UAS, 625 pg pRL-CMV and 6.25 μL FuGENE™ HD transfection reagent (Promega) were mixed in 0.25 mL OPTI-MEM™ (Life technologies) at room temperature. At the same time, Negative control DNA mixture was prepared by using 1 μg pM empty vector instead of pM-ROR gamma plasmid. After a fifteen minute incubation, 0.25 mL of transfection reagent/DNA mixture was added to 1,000,000 of HEK293T cells (ATCC) in 5 mL of OPTI-MEM™ containing 10% Charcoal Stripped Fetal Bovine Serum.
Transfected cells were seeded onto 384 well plate (10 μL/well) and the 7.5 nL of test compounds were added to the wells in 8 concentrations ranging from 3.5 nM to 10.5 μM. The compounds were dissolved in 100% DMSO and the final concentration of DMSO in the assay was 0.075%.
After 24 h of incubation at 37° C., 5% CO2 in a cell culture incubator, the Dual-Glo™ Luciferase Assay System was used to detect activity according to the manufacturer's instructions (Promega, Cat. No.: E2920).
Data was plotted and pIC50 values were calculated using the XLfit program (ID Business Solutions Ltd.).

[1] = read-out: result (pIC50, inhibition of RORγ transcriptional activity) (converted)

SMILES: CC1(C)CC[C@@H](CN(CC(=O)c2c(Cl)cncc2Cl)C(=O)c2cnn([C@H]3CC[C@H](C(=O)O)CC3)c2C(F)(F)F)O1 (relative stereo) [Example 14, trans-4-(4-((2-(3,5-dichloropyridin-4-yl)-2-oxoethyl)(((S)-5,5-dimethylTHF-2-yl)methyl)carbamoyl)-5-(trifluoromethyl)-1H-pyrazol-1-yl)cyclohexanecarboxylic acid]
- result (pIC50, inhibition of RORγ transcriptional activity): 7.12

SMILES: CC1(C)CCC(N(CC(O)c2c(Cl)cc(F)cc2Cl)C(=O)c2cnn([C@H]3CC[C@](C)(C(=O)O)CC3)c2C(F)(F)F)CC1 (single isomer, unassigned) [Example 361, trans-4-(4-(((2R)-2-(2,6-dichloro-4-fluorophenyl)-2-hydroxyethyl)-(4,4-dimethylcyclohexyl)carbamoyl)-5-(trifluoromethyl)pyrazol-1-yl)-1-methylcyclohexane-1-carboxylic acid or trans-4-(4-(((2S)-2-(2,6-dichloro-4-fluorophenyl)-2-hydroxyethyl)-(4,4-dimethylcyclohexyl)carbamoyl)-5-(trifluoromethyl)pyrazol-1-yl)-1-methylcyclohexane-1-carboxylic acid]
- IC50 [1]: 1.2e+06 pM

SMILES: CC1(C)CCC(N(CC(O)c2c(Cl)cc(F)cc2Cl)C(=O)c2cnn([C@H]3CC[C@](C)(C(=O)O)CC3)c2C(F)(F)F)CC1 (single isomer, unassigned) [Example 362, trans-4-(4-(((2R)-2-(2,6-dichloro-4-fluorophenyl)-2-hydroxyethyl)-(4,4-dimethylcyclohexyl)carbamoyl)-5-(trifluoromethyl)pyrazol-1-yl)-1-methylcyclohexane-1-carboxylic acid or trans-4-(4-(((2S)-2-(2,6-dichloro-4-fluorophenyl)-2-hydroxyethyl)-(4,4-dimethylcyclohexyl)carbamoyl)-5-(trifluoromethyl)pyrazol-1-yl)-1-methylcyclohexane-1-carboxylic acid]
- IC50 [1]: 57500 pM

SMILES: O=C(CN(Cc1ccc(F)cc1)C(=O)c1cnn([C@H]2CCC(C(=O)O)C2)c1C(F)(F)F)c1c(Cl)cncc1Cl (stereo in doubt) [Example 93, (1S,3S)-3-(4-((2-(3,5-dichloropyridin-4-yl)-2-oxoethyl)-((4-fluorophenyl)methyl)carbamoyl)-5-(trifluoromethyl)pyrazol-1-yl)cyclopentane-1-carboxylic acid]
- IC50 [1]: 575000 pM

SMILES: CC(C)(C)CN(C[C@H](O)c1ncccc1Cl)C(=O)c1cnn([C@H]2CC[C@](C)(C(=O)O)CC2)c1C(F)(F)F (stereo in doubt) [Example 402, trans-4-(4-((2-(3-chloropyridin-2-yl)-2-hydroxyethyl)-(2,2-dimethylpropyl)carbamoyl)-5-(trifluoromethyl)pyrazol-1-yl)-1-methylcyclohexane-1-carboxylic acid]
- IC50 [1]: ≥ 1.05e+07 pM

SMILES: CC(C)(C)CN(C[C@@H](O)c1ncccc1Cl)C(=O)c1cnn([C@H]2CC[C@](C)(C(=O)O)CC2)c1C(F)(F)F (stereo in doubt) [Example 403, trans-4-(4-((2-(3-chloropyridin-2-yl)-2-hydroxyethyl)-(2,2-dimethylpropyl)carbamoyl)-5-(trifluoromethyl)pyrazol-1-yl)-1-methylcyclohexane-1-carboxylic acid]
- IC50 [1]: 1.74e+06 pM

SMILES: O=C(CN(Cc1ccc(F)cc1)C(=O)c1cnn([C@H]2CC[C@H](C(=O)O)CC2)c1C(F)(F)F)c1c(Cl)cncc1Cl [Example 1, trans-4-(4-((2-(3,5-dichloropyridin-4-yl)-2-oxoethyl)(4-fluorobenzyl)carbamoyl)-5-(trifluoromethyl)-1H-pyrazol-1-yl)cyclohexanecarboxylic acid]
- IC50 [1]: 24000 pM

SMILES: C[C@]1(C(=O)O)CC[C@H](n2ncc(C(=O)N(CC(=O)c3c(Cl)cc(F)cc3Cl)Cc3cc(F)cc(F)c3)c2C(F)(F)F)CC1 [Example 2, trans-4-(4-((2-(2,6-dichloro-4-fluorophenyl)-2-oxoethyl)(3,5-difluorobenzyl)carbamoyl)-5-(trifluoromethyl)-1H-pyrazol-1-yl)-1-methylcyclohexanecarboxylic acid]
- IC50 [1]: 7590 pM

SMILES: Cc1csc(C)c1C(=O)CN(Cc1cc(F)cc(F)c1)C(=O)c1cnn([C@H]2CC[C@H](C(=O)O)CC2)c1C(F)(F)F [Example 3, trans-4-(4-((3,5-difluorobenzyl)(2-(2,4-dimethylthiophen-3-yl)-2-oxoethyl)carbamoyl)-5-(trifluoromethyl)-1H-pyrazol-1-yl)cyclohexanecarboxylic acid]
- IC50 [1]: > 1e+07 pM

SMILES: CS(=O)(=O)c1cc(Cl)c(C(=O)CN(Cc2cc(F)cc(F)c2)C(=O)c2cnn([C@H]3CC[C@H](C(=O)O)CC3)c2C(F)(F)F)c(Cl)c1 [Example 4, trans-4-(4-((2-(2,6-dichloro-4-(methylsulfonyl)phenyl)-2-oxoethyl)(3,5-difluorobenzyl)carbamoyl)-5-(trifluoromethyl)-1H-pyrazol-1-yl)cyclohexanecarboxylic acid]
- IC50 [1]: 380000 pM

SMILES: O=C(CN(Cc1cc(F)cc(F)c1)C(=O)c1cnn([C@H]2CC[C@H](C(=O)NO)CC2)c1C(F)(F)F)c1c(Cl)cncc1Cl [Example 5, N-(2-(3,5-dichloropyridin-4-yl)-2-oxoethyl)-N-(3,5-difluorobenzyl)-1-(trans-4-(hydroxycarbamoyl)cyclohexyl)-5-(trifluoromethyl)-1H-pyrazole-4-carboxamide]
- IC50 [1]: 209000 pM

SMILES: CONC(=O)[C@H]1CC[C@H](n2ncc(C(=O)N(CC(=O)c3c(Cl)cncc3Cl)Cc3cc(F)cc(F)c3)c2C(F)(F)F)CC1 [Example 6, N-(2-(3,5-dichloropyridin-4-yl)-2-oxoethyl)-N-(3,5-difluorobenzyl)-1-(trans-4-(methoxycarbamoyl)cyclohexyl)-5-(trifluoromethyl)-1H-pyrazole-4-carboxamide]
- IC50 [1]: 87100 pM

SMILES: COc1cccc(O)c1C(=O)CN(Cc1cc(F)cc(F)c1)C(=O)c1cnn([C@H]2CC[C@H](C(=O)O)CC2)c1C(F)(F)F [Example 7, trans-4-(4-((3,5-difluorobenzyl)(2-(2-hydroxy-6-methoxyphenyl)-2-oxoethyl)carbamoyl)-5-(trifluoromethyl)-1H-pyrazol-1-yl)cyclohexanecarboxylic acid]
- IC50 [1]: 4.57e+06 pM

SMILES: O=C(CN(Cc1cc(F)cc(F)c1)C(=O)c1cnn([C@H]2CC[C@H](C(=O)O)CC2)c1C(F)(F)F)c1cc[nH]n1 [Example 8, trans-4-(4-((3,5-difluorobenzyl)(2-oxo-2-(1H-pyrazol-3-yl)ethyl)carbamoyl)-5-(trifluoromethyl)-1H-pyrazol-1-yl)cyclohexanecarboxylic acid]
- IC50 [1]: > 1e+07 pM

SMILES: O=C(CN(Cc1cc(F)cc(F)c1)C(=O)c1cnn(C2CCC(C(=O)O)CC2)c1C(F)(F)F)c1c(O)cccc1O (stereo not drawn) [Example 9, 4-(4-((3,5-difluorobenzyl)(2-(2,6-dihydroxyphenyl)-2-oxoethyl)carbamoyl)-5-(trifluoromethyl)-1H-pyrazol-1-yl)cyclohexanecarboxylic acid]
- IC50 [1]: > 1e+07 pM

SMILES: O=C(c1cnn([C@H]2CC[C@H](C(=O)O)CC2)c1C(F)(F)F)N(Cc1cc(F)cc(F)c1)CC(F)(F)c1c(Cl)cncc1Cl [Example 10, trans-4-(4-((2-(3,5-dichloropyridin-4-yl)-2,2-difluoroethyl)(3,5-difluorobenzyl)carbamoyl)-5-(trifluoromethyl)-1H-pyrazol-1-yl)cyclohexanecarboxylic acid]
- IC50 [1]: 25700 pM

SMILES: Nc1cccc(Cl)c1C(=O)CN(Cc1cc(F)cc(F)c1)C(=O)c1cnn([C@H]2CC[C@H](C(=O)O)CC2)c1C(F)(F)F [Example 11, trans-4-(4-((2-(2-amino-6-chlorophenyl)-2-oxoethyl)(3,5-difluorobenzyl)carbamoyl)-5-(trifluoromethyl)-1H-pyrazol-1-yl)cyclohexanecarboxylic acid]
- IC50 [1]: 38000 pM

SMILES: O=C(CN(Cc1cc(F)cc(F)c1)C(=O)c1cnn([C@H]2CC[C@H](C(=O)O)CC2)c1C(F)(F)F)c1c(O)nc(O)nc1O [Example 12, trans-4-(4-((3,5-difluorobenzyl)(2-oxo-2-(2,4,6-trihydroxypyrimidin-5-yl)ethyl)carbamoyl)-5-(trifluoromethyl)-1H-pyrazol-1-yl)cyclohexanecarboxylic acid]
- IC50 (result (pIC50, inhibition of RORγ transcriptional activity)): 3.72e+06 pM
